{"source": "paper PMC5505994", "about": "(Scientific Reports, 2017)", "target": "T1, MbAhpC (Mycobacterium tuberculosis, UniProt P9WQB7)", "T1 construct": "gene ahpC", "T1 sequence (P9WQB7 whole entry)": "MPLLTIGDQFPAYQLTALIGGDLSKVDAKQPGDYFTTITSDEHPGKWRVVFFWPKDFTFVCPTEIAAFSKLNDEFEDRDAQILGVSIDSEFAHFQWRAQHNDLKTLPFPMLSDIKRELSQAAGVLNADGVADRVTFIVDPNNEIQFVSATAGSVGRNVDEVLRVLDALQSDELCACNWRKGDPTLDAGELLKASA", "conditions": "read-out: K m ± SD", "data": [{"smiles": "CC(C)(C)OO", "note": "[tert-butyl hydroperoxide]", "values": [{"measurement": "Km", "value": "2230 ± 490", "unit": "nM"}]}]}
